Read-outs that look alike come from different tables or passages of the source.
What was measured:
BRD4 BD2 = BRD4 BD2 (Homo sapiens (Human), UniProt O60885); assay: NanoBRET bromodomain assay, NanoLuc-BRD4-BD2 fusion in HEK293 cells; settings: for IC50: NanoBRET, HEK293 cells, top concentration 10 μM; for Fold selectivity: IC50 for BRD4 BD1 divided by IC50 for BRD4 BD2, qualitative if an IC50 is at the upper limit;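 for all read-outs here: tracer displacement BRET read in transfected cells after 2 h compound exposure at 37 °C, signal in milliBRET units corrected against no-tracer background wells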
BRD4 BD1 = BRD4 BD1 (Homo sapiens (Human), UniProt O60885); assay: NanoBRET bromodomain assay, NanoLuc-BRD4-BD1 fusion in HEK293 cells; assay type: cell-based; settings: top concentration 10 μM
Protocol: HEK293 cells were transfected using NanoLuc-BRD4-BD1 or NanoLuc-BRD4-BD2 fusion vectors and incubated at 37° C. in an atmosphere of 5% CO2 for 20-24 hours. The transfected cells were then dispensed into 96-well plates using 90 μl cell suspension per well containing 2×10^5 cells/mL in Opti-MEM and 1× final concentration of tracer. 90 μL per well of cell suspension without tracer was also dispensed into at least 3 wells as “No tracer control samples” for background correction. Serially diluted test compounds were prepared at 1000× concentration in DMSO and further diluted to 10× concentration in Opti-MEM. […] Plates were then incubated at 37° C. +5% 002 incubator for 2 hours. […] Donor emission (450 nm) and acceptor emission (610 nm) were measured using PHERAstar (BMG LabTech). For data analysis, the raw BRET ratio was generated and converted to milliBRET units with background correction using the formula: [(Acceptorsample/Donorsample−(Acceptorno tracer control/Donorno tracer control)]×1000. The mBU data was plotted as a function of compound concentration and IC50s for BRET assay were determined by nonlinear regression analysis of concentration response curves using the Collaborative Drug Discovery Vault software. The fold-selectivity was calculated by dividing the IC50 for BRD4 BD1 by the IC50 for BRD4 BD2.

With `CCNC(=O)c1cc(OC(C)c2ccc(Cl)cc2)c(C(=O)NC)[nH]1` (racemic) [Example 122, 3-(1-(4-chlorophenyl)ethoxy)-N^5-ethyl-N^2-methyl-1H-pyrrole-2,5-dicarboxamide] the IC50 (BRD4 BD2; BRD4 BD2 (IC50)) was 0.05 to 0.2 µM, the Fold selectivity (BRD4 BD2) was “XX (Fold >50 and ≤200)” and the IC50 (BRD4 BD1) was at least 10 µM.
In the case of `CCNC(=O)c1cc(OC(c2ccccc2)C(C)C)c(C(=O)NC)[nH]1` (racemic) [Example 77, N^5-ethyl-N^2-methyl-3-(2-methyl-1-phenylpropoxy)-1H-pyrrole-2,5-dicarboxamide], the IC50 (BRD4 BD2; BRD4 BD2 (IC50)) is reported as over 10 µM, the Fold selectivity (BRD4 BD2) is reported as “— (Fold ≥0 and ≤2)” and the IC50 (BRD4 BD1) is reported as at least 10 µM.
`CCNC(=O)c1cc(OC(c2ccccc2)C2CC2)c(C(=O)NC)[nH]1` (racemic) [Example 63, 3-(cyclopropyl(phenyl)methoxy)-N^5-ethyl-N^2-methyl-1H-pyrrole-2,5-dicarboxamide] was tested, and the IC50 (BRD4 BD2; BRD4 BD2 (IC50)) was over 10 µM, the Fold selectivity (BRD4 BD2) was “— (Fold ≥0 and ≤2)” and the IC50 (BRD4 BD1) was at least 10 µM.
For `CCNC(=O)c1cc(OC(C)c2cccc(OC)c2)c(C(=O)NC)[nH]1` (racemic) [Example 7, N^5-ethyl-3-(1-(3-methoxyphenyl)ethoxy)-N^2-methyl-1H-pyrrole-2,5-dicarboxamide], the IC50 (BRD4 BD2; BRD4 BD2 (IC50)) was 0.2 to 1 µM, the Fold selectivity (BRD4 BD2) was “X (Fold >2 and ≤50)” and the IC50 (BRD4 BD1) was at least 10 µM.
With `CNC(=O)c1[nH]c(C(=O)N[C@H]2CC[C@H](O)CC2)cc1O[C@@H](C)c1ccnnc1` (single isomer, unassigned) [Example 94, N^5-(4-hydroxycyclohexyl)-N^2-methyl-3-(1-(pyridazin-4-yl)ethoxy)-1H-pyrrole-2,5-dicarboxamide] the Fold selectivity (BRD4 BD2) was “— (Fold ≥0 and ≤2)”, the IC50 (BRD4 BD2; read-out: BRD4 BD2 (IC50)) was over 10 µM and the IC50 (BRD4 BD1) was at least 10 µM.
With `CCNC(=O)c1cc(OC(C)c2cccc(C)c2)c(C(=O)NC)[nH]1` (racemic) [Example 17, N^5-ethyl-N^2-methyl-3-(1-(m-tolyl)ethoxy)-1H-pyrrole-2,5-dicarboxamide] the IC50 (BRD4 BD2; BRD4 BD2 (IC50)) was 0.05 to 0.2 µM, the Fold selectivity (BRD4 BD2) was “XX (Fold >50 and ≤200)” and the IC50 (BRD4 BD1) was at least 10 µM.
For `CNC(=O)c1[nH]c(NC(C)=O)cc1O[C@@H](C)c1ccccc1F` [Example 128, (S)-5-acetamido-3-(1-(2-fluorophenyl)ethoxy)-N-methyl-1H-pyrrole-2-carboxamide], the IC50 (BRD4 BD2; BRD4 BD2 (IC50)) was 0.05 to 0.2 µM, the Fold selectivity (BRD4 BD2) was “XX (Fold >50 and ≤200)” and the IC50 (BRD4 BD1) was at least 10 µM.
`CCNC(=O)c1cc(OC(C)c2ccc(F)cc2)c(C(=O)NC)[nH]1` (racemic) [Example 127, N^5-ethyl-3-(1-(4-fluorophenyl)ethoxy)-N^2-methyl-1H-pyrrole-2,5-dicarboxamide] was tested, and the IC50 (BRD4 BD2; BRD4 BD2 (IC50)) was 0.05 to 0.2 µM, the Fold selectivity (BRD4 BD2) was “XX (Fold >50 and ≤200)” and the IC50 (BRD4 BD1) was at least 10 µM.
With `CCNC(=O)c1cc(OC(C)c2ccc(F)c(F)c2)c(C(=O)NC)[nH]1` (racemic) [Example 12, 3-(1-(3,4-difluorophenyl)ethoxy)-N5-ethyl-N2-methyl-1H-pyrrole-2,5-dicarboxamide] the IC50 (BRD4 BD2; BRD4 BD2 (IC50)) was 0.2 to 1 µM, the Fold selectivity (BRD4 BD2) was “X (Fold >2 and ≤50)” and the IC50 (BRD4 BD1) was at least 10 µM.
With `CCNC(=O)c1cc(OC(COC)c2ccccc2)c(C(=O)NC)[nH]1` (racemic) [Example 10, N^5-ethyl-3-(2-methoxy-1-phenylethoxy)-N^2-methyl-1H-pyrrole-2,5-dicarboxamide] the IC50 (BRD4 BD2; BRD4 BD2 (IC50)) was over 10 µM, the Fold selectivity (BRD4 BD2) was “— (Fold ≥0 and ≤2)” and the IC50 (BRD4 BD1) was at least 10 µM.
In the case of `CNC(=O)c1[nH]c(-c2nc(C)c(C)[nH]2)cc1O[C@@H](C)c1ccccc1` [Example 87, (S)-5-(4,5-dimethyl-1H-imidazol-2-yl)-N-methyl-3-(1-phenylethoxy)-1H-pyrrole-2-carboxamide], the IC50 (BRD4 BD2; BRD4 BD2 (IC50)) is reported as 0.05 to 0.2 µM, the Fold selectivity (BRD4 BD2) is reported as “XX (Fold >50 and ≤200)” and the IC50 (BRD4 BD1) is reported as at least 10 µM.
For `CNC(=O)c1[nH]c(C(=O)NC(C)C)cc1O[C@@H](C)c1ccccc1F` [Example 58, (S)-3-(1-(2-fluorophenyl)ethoxy)-N^5-isopropyl-N^2-methyl-1H-pyrrole-2,5-dicarboxamide], the IC50 (BRD4 BD2; BRD4 BD2 (IC50)) was 0.05 to 0.2 µM, the Fold selectivity (BRD4 BD2) was “XX (Fold >50 and ≤200)” and the IC50 (BRD4 BD1) was at least 10 µM.
`CNC(=O)c1[nH]c(-c2ncc[nH]2)cc1O[C@@H](C)c1ccccc1` [Example 89, (S)-5-(1H-imidazol-2-yl)-N-methyl-3-(1-phenylethoxy)-1H-pyrrole-2-carboxamide] was tested, and the IC50 (BRD4 BD2; BRD4 BD2 (IC50)) was 0.05 to 0.2 µM, the Fold selectivity (BRD4 BD2) was “XX (Fold >50 and ≤200)” and the IC50 (BRD4 BD1) was at least 10 µM.
With `CNC(=O)c1[nH]c(-c2ncc(C)[nH]2)cc1O[C@H](C)c1ccccc1` [Example 24, (R)-N-methyl-5-(5-methyl-1H-imidazol-2-yl)-3-(1-phenylethoxy)-1H-pyrrole-2-carboxamide] the IC50 (BRD4 BD2; BRD4 BD2 (IC50)) was 1 to 10 µM, the remaining activity at 10 µM (BRD4 BD2; HEK293, read-out: BRD4 BD2 % Activity Remaining @ 10 uM, 10 uM, (2) = second batch) was 41% and the IC50 (BRD4 BD1) was at least 10 µM.
For `CNC(=O)c1[nH]c(C(=O)NCC(F)(F)F)cc1O[C@@H](C)c1ccccc1F` [Example 57, (S)-3-(1-(2-fluorophenyl)ethoxy)-N^2-methyl-N^5-(2,2,2-trifluoroethyl)-1H-pyrrole-2,5-dicarboxamide], the IC50 (BRD4 BD2; BRD4 BD2 (IC50)) was 0.2 to 1 µM, the Fold selectivity (BRD4 BD2) was “X (Fold >2 and ≤50)” and the IC50 (BRD4 BD1) was at least 10 µM.
With `CCNC(=O)c1cc(OC(C)c2c(C)cccc2C)c(C(=O)NC)[nH]1` (single isomer, unassigned) [Example 65, 3-(1-(2,6-dimethylphenyl)ethoxy)-N^5-ethyl-N^2-methyl-1H-pyrrole-2,5-dicarboxamide] the IC50 (BRD4 BD2; BRD4 BD2 (IC50)) was over 10 µM, the Fold selectivity (BRD4 BD2) was “— (Fold ≥0 and ≤2)” and the IC50 (BRD4 BD1) was at least 10 µM.
With `CCNC(=O)c1cc(OC(C)c2c(Cl)cccc2Cl)c(C(=O)NC)[nH]1` (single isomer, unassigned) [Example 66, 3-(1-(2,6-dichlorophenyl)ethoxy)-N^5-ethyl-N^2-methyl-1H-pyrrole-2,5-dicarboxamide] the IC50 (BRD4 BD2; BRD4 BD2 (IC50)) was over 10 µM, the Fold selectivity (BRD4 BD2) was “— (Fold ≥0 and ≤2)” and the IC50 (BRD4 BD1) was at least 10 µM.
In the case of `CCNC(=O)c1cc(OC(C)c2ccnnc2)c(C(=O)NC)[nH]1` (single isomer, unassigned) [Example 78, N^5-ethyl-N^2-methyl-3-(1-(pyridazin-4-yl)ethoxy)-1H-pyrrole-2,5-dicarboxamide], the IC50 (BRD4 BD2; BRD4 BD2 (IC50)) is reported as over 10 µM, the Fold selectivity (BRD4 BD2) is reported as “— (Fold ≥0 and ≤2)” and the IC50 (BRD4 BD1) is reported as at least 10 µM.
With `CCNC(=O)c1cc(OC(C)c2ccc(Br)cc2)c(C(=O)NC)[nH]1` (single isomer, unassigned) [Example 50, 3-(1-(4-bromophenyl)ethoxy)-N^5-ethyl-N^2-methyl-1H-pyrrole-2,5-dicarboxamide] the IC50 (BRD4 BD2; BRD4 BD2 (IC50)) was over 10 µM, the Fold selectivity (BRD4 BD2) was “— (Fold ≥0 and ≤2)” and the IC50 (BRD4 BD1) was at least 10 µM.
With `CNC(=O)c1[nH]c(-c2cc(C)nn2C)cc1O[C@H](C)c1ccccc1` [Example 82, (R)-5-(1,3-dimethyl-1H-pyrazol-5-yl)-N-methyl-3-(1-phenylethoxy)-1H-pyrrole-2-carboxamide] the IC50 (BRD4 BD2; BRD4 BD2 (IC50)) was over 10 µM, the Fold selectivity (BRD4 BD2) was “— (Fold ≥0 and ≤2)” and the IC50 (BRD4 BD1) was at least 10 µM.
In the case of `CNC(=O)c1[nH]c(C(=O)N[C@H]2CC[C@H](O)CC2)cc1O[C@@H](C)c1ccnnc1` (single isomer, unassigned) [Example 91, N^5-(4-hydroxycyclohexyl)-N^2-methyl-3-(1-(pyridazin-4-yl)ethoxy)-1H-pyrrole-2,5-dicarboxamide], the IC50 (BRD4 BD2; BRD4 BD2 (IC50)) is reported as over 10 µM, the Fold selectivity (BRD4 BD2) is reported as “— (Fold ≥0 and ≤2)” and the IC50 (BRD4 BD1) is reported as at least 10 µM.
`CCNC(=O)c1cc(OC(C)c2ccc(Cl)cc2)c(C(=O)NC)[nH]1` (single isomer, unassigned) [Example 19, 3-(1-(4-chlorophenyl)ethoxy)-N^5-ethyl-N^2-methyl-1H-pyrrole-2,5-dicarboxamide] was tested, and the IC50 (BRD4 BD2; BRD4 BD2 (IC50)) was over 10 µM, the Fold selectivity (BRD4 BD2) was “— (Fold ≥0 and ≤2)” and the IC50 (BRD4 BD1) was at least 10 µM.
With `CNC(=O)c1[nH]c(-c2ccc(F)cc2F)cc1O[C@@H](C)c1ccccc1` [Example 86, (S)-5-(2,4-difluorophenyl)-N-methyl-3-(1-phenylethoxy)-1H-pyrrole-2-carboxamide] the IC50 (BRD4 BD2; BRD4 BD2 (IC50)) was 1 to 10 µM, the Fold selectivity (BRD4 BD2) was “X (Fold >2 and ≤50)” and the IC50 (BRD4 BD1) was at least 10 µM.
For `CCNC(=O)c1cc(OC(C)c2cccc(F)c2F)c(C(=O)NC)[nH]1` (racemic) [Example 13, 3-(1-(2,3-difluorophenyl)ethoxy)-N^5-ethyl-N^2-methyl-1H-pyrrole-2,5-dicarboxamide], the IC50 (BRD4 BD2; BRD4 BD2 (IC50)) was 0.2 to 1 µM, the Fold selectivity (BRD4 BD2) was “X (Fold >2 and ≤50)” and the IC50 (BRD4 BD1) was at least 10 µM.
In the case of `CCNC(=O)c1cc(OC(C)c2ccc(F)cc2F)c(C(=O)NC)[nH]1` (racemic) [Example 14, 3-(1-(2,4-difluorophenyl)ethoxy)-N^5-ethyl-N^2-methyl-1H-pyrrole-2,5-dicarboxamide], the IC50 (BRD4 BD2; BRD4 BD2 (IC50)) is reported as 0.2 to 1 µM, the Fold selectivity (BRD4 BD2) is reported as “X (Fold >2 and ≤50)” and the IC50 (BRD4 BD1) is reported as at least 10 µM.
In the case of `CCNC(=O)c1cc(OC(C)c2cccc(Cl)c2)c(C(=O)NC)[nH]1` (racemic) [Example 3, 3-(1-(3-chlorophenyl)ethoxy)-N^5-ethyl-N^2-methyl-1H-pyrrole-2,5-dicarboxamide], the IC50 (BRD4 BD2; BRD4 BD2 (IC50)) is reported as 0.05 to 0.2 µM, the Fold selectivity (BRD4 BD2) is reported as “XX (Fold >50 and ≤200)” and the IC50 (BRD4 BD1) is reported as at least 10 µM.
In the case of `CNC(=O)c1[nH]c(C(=O)NC2CCC2)cc1OC(C)c1ccc(Cl)cc1` (single isomer, unassigned) [Example 28, 3-(1-(4-chlorophenyl)ethoxy)-N^5-cyclobutyl-N^2-methyl-1H-pyrrole-2,5-dicarboxamide], the Fold selectivity (BRD4 BD2) is reported as “— (Fold ≥0 and ≤2)”.
`CCNC(=O)c1cc(OC(C)c2c(C)cccc2C)c(C(=O)NC)[nH]1` (single isomer, unassigned) [Example 64, 3-(1-(2,6-dimethylphenyl)ethoxy)-N^5-ethyl-N^2-methyl-1H-pyrrole-2,5-dicarboxamide] was tested, and the Fold selectivity (BRD4 BD2) was “— (Fold ≥0 and ≤2)”.
`CNC(=O)c1[nH]c(C(=O)N[C@H]2CC[C@H](O)CC2)cc1O[C@@H](C)c1ccnnc1` (single isomer, unassigned) [Example 92, N^5-(4-hydroxycyclohexyl)-N^2-methyl-3-(1-(pyridazin-4-yl)ethoxy)-1H-pyrrole-2,5-dicarboxamide] was tested, and the Fold selectivity (BRD4 BD2) was “— (Fold ≥0 and ≤2)”.
